The values that follow come from paper PMC7600679, “Benzoxazole-Based Metal Complexes to Reverse Multidrug Resistance in Bacteria” (Antibiotics, 2020).

Data set [1] has as its system Staphylococcus aureus ATCC 25923. Put plainly: Minimum inhibitory concentration (broth microdilution, CLSI). Type of data set: cell-based. The following applies: S. aureus ATCC 25923, 18 h, visual inspection. The method, then:
(§1) The compounds were further investigated against two Gram-positive strains, S. aureus ATCC 25923 (MSSA), used as the methicillin susceptible reference strain, and the methicillin- and ofloxacin-resistant S. aureus 272123 clinical isolate (MRSA), which was given by Prof. Dr. Leonard Amaral (Institute of Hygiene and Tropical Medicine, Lisbon, Portugal).
(§2) The minimum inhibitory concentrations (MICs) of compounds were determined in 96-well plates based on the Clinical and Laboratory Standard Institute guidelines (CLSI guidelines). The compounds were diluted in 100 μL of MHB. Then, 10^−4 dilution of an overnight bacterial culture in 100 μL of medium were added to each well, with the exception of the medium control wells.
(In broth dilution the organism is exposed to a series of concentrations in liquid medium.)

The test system of data set [2] is S. aureus 272123 (MRSA). The description is as above. The following applies: 18 h, visual inspection. It counts as cell-based, Staphylococcus aureus. Here is the method: as §1, §2
Data set [3] concerns S. aureus ATCC 25923. Put plainly: Anti-biofilm effect (crystal violet). Type of data set: cell-based, Staphylococcus aureus. The following applies: compound at ¼ MIC, 48 h, 30 °C, vs untreated biofilm mass. The method, then:
The effect of ligands and their metal complexes on biofilm formation was evaluated on the reference S. aureus ATCC 25923 strain. The biofilm inhibition (%) was calculated based on the mean of absorbance units.
The biofilm production of the S. aureus ATCC 25923 strain was studied in 96-well plates using TSB broth in the presence of compounds. […] The final volume was 200 μL in each well. The samples were incubated at 30 °C for 48 h with gentle agitation (100 rpm). Then, the medium was removed, and the plate was washed with tap water to discard unattached cells. 200 μL CV (0.1% [v/v]) was added to the wells and incubated for 15 min at room temperature. CV was removed from the wells and the plate was washed again with tap water. 200 μL 70% ethanol was transferred to each well and the biofilm formation was determined by measuring the OD at 600 nm using Multiscan EX ELISA reader (Thermo Labsystems, Cheshire, CT, USA). The anti-biofilm effect of compounds was determined as the percentage (%) of decrease in biofilm formation. The assay was repeated a minimum of three times. The results were calculated using a t-test and p-values of <0.001 were considered significant.

Data set [4] has as its system E. coli AG100. Nature of the data set: Minimum inhibitory concentration (broth microdilution, CLSI). Type of data set: cell-based, Escherichia coli. The following applies: E. coli AG100, 18 h, visual inspection, read-out: MIC. Here is the method: The strains were donated by Prof. Dr. Hiroshi Nikaido (Department of Molecular and Cell Biology and Chemistry, University of California, Berkeley, CA, USA).
as §2

Data set [5] concerns MRC-5 human embryonal lung fibroblast cell line. Put plainly: Cytotoxicity assay (MTT). It counts as cell-based. The method, then: The MRC-5 human embryonic lung fibroblast cell line (ATCC CCL-171; provider: LGC Promochem, Teddington, UK) was used in the experiments. The cells were cultivated in Eagle’s Minimal Essential Medium (EMEM; Sigma–Aldrich, St. Louis, MO, USA), supplemented with 1% non-essential amino acid mixture, 10% heat-inactivated fetal bovine serum, 2 mM L-glutamine, 1 mM Na-pyruvate, nystatin, and a penicillin–streptomycin mixture in concentrations of 100 U/L and 10 mg/L, respectively. The supplementary components were obtained from Sigma–Aldrich, St. Louis, MO, USA. The cell culture was kept in a humidified atmosphere (5% CO2, 95% air) at 37 °C.
The activity of increasing concentrations of the compounds on cell growth was determined in 96-well flat-bottomed microtiter plates by two-fold serial dilutions of the benzoxazole derivatives. The adherent human embryonic lung fibroblast cells (10^4/well) was seeded in EMEM medium in 96-well microtiter plates for 4 h prior to the assay. The serial dilutions of the compounds were made in a separate plate, and then pipetted to the plates containing the MRC-5 cell line. Culture plates were incubated at 37 °C for 24 h; at the end of the incubation period, 20 μL of MTT (3-(4,5-dimethylthiazol-2-yl)-2,5-diphenyltetrazolium bromide) solution (from a 5 mg/mL stock solution) was measured to each well. After the incubation at 37 °C for 4 h, 100 μL of sodium dodecyl sulfate (SDS) solution (10% SDS in 0.01 M HCl) was added to each well to dissolve the formazan crystals and the samples were further incubated at 37 °C overnight. Cell growth was calculated by measuring the OD at 540 nm (ref. 630 nm) with a Multiscan EX ELISA reader. The cytotoxicity was expressed as IC50 values, defined as the inhibitory dose that reduces the growth of the cells exposed to the tested compounds by 50%.

Data set [6] relates to C. violaceum 026 sensor strain with AHL producer E. cloacae 31298. Nature of the data set: Quorum sensing inhibition (agar diffusion, violacein production). It counts as cell-based, Chromobacterium violaceum. The following applies: disc with 10 μL of 1 mM stock; reduction of violacein zone. Here is the method: The following bacterial strains were applied in the QS tests: C. violaceum 026 as sensor strain and E. cloacae 31298 isolated from clinical wound (used as N-acyl-homoserine lactone (AHL) producer); this strain induced pigment production by C. violaceum and is a model strain to study QS interactions.
LB* was applied for these experiments. The sensor strain C. violaceum 026 and the AHL producer strains E. cloacae 31298 were inoculated as parallel lines and incubated at room temperature for 24–48 h. The inhibition of bacterial communication was determined by the agar diffusion method. Filter paper discs (7.0 mm in diameter) were impregnated with 10 μL of stock solutions (1 mM) of the compounds in DMSO. The discs were placed between the parallel lines of the sensor and the AHL producer strains. The plates were kept at room temperature for another 24–48 h, and the interactions between the strains and compounds were determined as the reduction in the size of the zone of purple pigment (violacein) production in millimeters. PMZ was applied as a positive control.
(In general: A growth-free zone around the sample is the usual read-out of agar diffusion tests.)

Converted amounts (≈) assume the structure as drawn. Like-named read-outs stand apart in the source and are kept apart here.

A word on the MIC: it is the lowest concentration found to suppress growth. For orientation: IC50 means the point on the concentration scale where inhibition reaches its midpoint. Low readings indicate greater potency in that assay, high ones weaker potency in that assay.

Consider `O=C(Cc1nc2ccccc2o1)C(F)F` [Compound 3], for which the MIC is 100 µM (≈ 21.1 µg/mL) in data set [1] (Staphylococcus aureus, ATCC25923); 50 µM (≈ 10.6 µg/mL) in data set [2]; 50 µM (≈ 10.6 µg/mL) in data set [2] (Staphylococcus aureus); 50 µM (≈ 10.6 µg/mL) in data set [4] (Escherichia coli). This compound had a Biofilm inhibition in data set [3] of 16.4%. Besides, in data set [5] (24 h), the “Cytotoxic effect (class in words)” value is recorded as “moderate (IC50: 31–60)”. In addition, the IC50 in data set [5] (Homo sapiens, MRC5, 24 h) amounted to 44.5 µM. Further, the “Inhibition zone (quorum sensing)” value in data set [6] is 56 mm.

For the compound `[O-]C(=Cc1nc2ccccc2o1)C(F)(F)Cl.[O-]C(=Cc1nc2ccccc2o1)C(F)(F)Cl.[Zn+2]` [Compound 5], the MIC in data set [1] was determined as 12.5 µM; in data set [2], 3.125 µM; in data set [4], 50 µM. The compound also displayed an IC50 in data set [5] (24 h) of 24.6 µM. The “Inhibition zone (quorum sensing)” value in data set [6] is 16 mm.

As to `[Fe+3].[O-]C(=Cc1nc2ccccc2o1)C(F)(F)F.[O-]C(=Cc1nc2ccccc2o1)C(F)(F)F.[O-]C(=Cc1nc2ccccc2o1)C(F)(F)F` [Compound 12], the MIC in data set [1] is reported as 50 µM; in data set [2], 25 µM; in data set [4], greater than 100 µM. In addition, the Biofilm inhibition in data set [3] worked out at 75%. In addition, the “Cytotoxic effect (class in words)” value in data set [5] (24 h) is recorded as “no (IC50 > 100 µM)”. The compound further came in with an IC50 in data set [5] (24 h) greater than 100 µM.
